Reference: publication PMC6829466 (International Journal of Molecular Sciences, 2019)
Like-named read-outs stand apart in the source and are kept apart here.

Assays:
HIV = conditions: cited from earlier work
HIV-1 [1] = assay: microbe, parasite or virus in culture; conditions: for TI (selectivity index): HIV-infected CEM-T4 cell line
Description: (§1) Evaluation of anti-HIV activity consisted of measurements of p24 antigen using the Genscreen ULTRA HIV Ag-Ab Kit. […] We included betulin and betulinic acid in our studies in order to broaden the structure-activity study. BVM, the first HIV-1 maturation inhibitor, was applied as a reference compound.
CEM-T4 cells were preincubated (culture plates with 96 flat bottom wells) for 24 h under standard conditions (37 °C, 5% CO2) and in a standard medium (RPMI, FCS 10%) enriched with tested compounds in the concentration range from 0.02 µM to 10 µM. In each well, 20,000 cells were suspended in the solution of a tested compound (200 μL). For each concentration, cultures were run in triplicate. A wild-type HIV-1 was isolated from the HIV-positive patient in the Laboratory of Virology of the National Medicines Institute (Warsaw, Poland) and was used as a reference. A culture of CEM-T4 lines in a standard neat medium (RPMU, FCS 10%) was used to produce viruses. After 24 h of incubation in a medium enriched with a tested compound, cells were inoculated with a known amount of HIV, and after 7 days, HIV replication was evaluated through the measurement of secreted viral protein p24 carried out with the enzyme-linked immunosorbent assay (ELISA) technique. For each tested compound and for each concentration, the measurements of p24 antigen were done in triplicate using the Genscreen ULTRA HIV Ag-Ab Kit (Biorad, Warszawa, Poland) and following manufacturer’s instructions. The absorbance of the sample was determined as an OD measured at 650 nm. HIV replication capacity was calculated using the Equation (2):Virus replication (%) = (OD of drug-enriched samples/OD of control samples) × 100(2)
The results were presented by a graph showing the ratio of HIV replication to the concentration of the tested preparation.

[2] = Cytotoxicity, MTT assay in CEM-T4 cells; conditions: human
Description: as §1
For the determination of compounds cytotoxicity, CEM-T4 cells were obtained from the NIH AIDS Reagent Program (NIH, US) and were cultured in RPMI supplemented with 10% FCS (Biochrom) and antibiotics at 37 °C in 5% CO2 on 96-well culture plates. […] Cultures in a neat medium (RPMI, 10% FCS) were used as a control. Viability of cells was determined after 7 days using the MTT assay in which 10 μL of MTT solution (5 mg/mL) was added to each culture plate well, and cultures were incubated for 3 h at a temperature of 37 °C. After the centrifugation, the supernatant was removed, and DMSO was added for lysis of the cells and to dissolve crystals of formazan. Color intensity was measured with a plate reader at 560 nm. Cell viability was determined by the Equation (1):Viability (%) = (OD of samples enriched in test drugs/OD of control samples) × 100(1) where OD means optical density.
Based on the calculations, a graph was created regarding the relationship between the concentration of the compound and the viability from which CC50 was established.

HIV-1 [3] = tested on: HIV-1; parameters: method as in PMID 8176401; conditions: inhibiting HIV-1 replication; cited from earlier work
[4] = Human immunodeficiency virus 1, CEM-T4, 168 h, wild-type HIV-1 in CEM-T4 cells, p24 antigen, 7 days, 50% inhibition of replication
[5] = wild-type HIV-1 in CEM-T4 cells, p24 antigen, 7 days, 50% inhibition of replication

3,28-di(dimethylglutaryl)betulin
EC50 (HIV): 0.00066 µM

C=C(C)C1CCC2(C(=O)O)CCC3(C)C(CCC4C5(C)CCC(OC(=O)CC(C)(C)CC(=O)O)C(C)(C)C5CCC43C)C12 (stereo not shown) [3′,3′-dimethylglutarylbetulinic acid]
EC50 (HIV; literature reports): 0.0023 µM

C=C(COP(=O)(OCC)OCC)C1CCC2(C(=O)O)CCC3(C)C(CCC4C5(C)CCC(O)C(C)(C)C5CCC43C)C12 (stereo not shown) [Compound 9]
IC50 (HIV-1 [1]; [4]): > 10 µM | CC50 at 7 days [2]: 18 ± 1.79 µM

CCOP(=O)(C=C(C)C1CCC2(C(=O)O)CCC3(C)C(CCC4C5(C)CCC(O)C(C)(C)C5CCC43C)C12)OCC (stereo not shown) [Compound 10, 29-Diethoxyphosphorylbetulinic acid]
TI (selectivity index) (HIV-1 [1]): <8 | IC50 (HIV-1 [1]; [4]): > 10 µM | CC50 at 7 days [2]: 80 ± 1.3 µM

C=C(CP(=O)(OCC)OCC)C1CCC2(C(=O)O)CCC3(C)C(CCC4C5(C)CCC(O)C(C)(C)C5CCC43C)C12 (stereo not shown) [Compound 11, 30-Diethoxyphosphorylbetulinic Acid]
IC50 (HIV-1 [1]; [4]): > 10 µM | CC50 at 7 days [2]: > 42 µM

C=C(COP(=O)(OCC)OCC)C1CCC2(C(=O)O)CCC3(C)C(CCC4C5(C)CCC(OC(=O)CC(C)(C)C(=O)O)C(C)(C)C5CCC43C)C12 (stereo not shown) [Compound 12a]
TI (selectivity index) (HIV-1 [1]): 52 | IC50 (HIV-1 [1]; [4]): < 2 µM | IC50 (HIV-1 [1]; [5]): 1 ± 0.33 µM | CC50 at 7 days [2]: 52 ± 1.07 µM

C=C(COP(=O)(OCC)OCC)C1CCC2(C(=O)O)CCC3(C)C(CCC4C5(C)CCC(OC(=O)CC(C)(C)CC(=O)O)C(C)(C)C5CCC43C)C12 (stereo not shown) [Compound 12b]
TI (selectivity index) (HIV-1 [1]): 47 | IC50 (HIV-1 [1]; [4]): 0.6 ± 0.04 µM | CC50 at 7 days [2]: 28 ± 1.64 µM

C=C(COP(=O)(OCC)OCC)C1CCC2(C(=O)O)CCC3(C)C(CCC4C5(C)CCC(OC(=O)CCC(C)(C)C(=O)O)C(C)(C)C5CCC43C)C12 (stereo not shown) [Compound 12c]
TI (selectivity index) (HIV-1 [1]): 16 | IC50 (HIV-1 [1]; [4]): 4 ± 1.65 µM | CC50 at 7 days [2]: 64 ± 1.84 µM

CCOP(=O)(C=C(C)C1CCC2(C(=O)O)CCC3(C)C(CCC4C5(C)CCC(OC(=O)CC(C)(C)C(=O)O)C(C)(C)C5CCC43C)C12)OCC (stereo not shown) [Compound 13a]
TI (selectivity index) (HIV-1 [1]): >35 | IC50 (HIV-1 [1]; [4]): < 2 µM | IC50 (HIV-1 [1]; [5]): 2 ± 0.72 µM | CC50 at 7 days [2]: > 68 µM

CCOP(=O)(C=C(C)C1CCC2(C(=O)O)CCC3(C)C(CCC4C5(C)CCC(OC(=O)CC(C)(C)CC(=O)O)C(C)(C)C5CCC43C)C12)OCC (stereo not shown) [Compound 13b]
TI (selectivity index) (HIV-1 [1]): >8 | IC50 (HIV-1 [1]; [4]): 8.8 ± 1.7 µM | CC50 at 7 days [2]: > 68 µM

CCOP(=O)(C=C(C)C1CCC2(C(=O)O)CCC3(C)C(CCC4C5(C)CCC(OC(=O)CCC(C)(C)C(=O)O)C(C)(C)C5CCC43C)C12)OCC (stereo not shown) [Compound 13c]
IC50 (HIV-1 [1]; [4]): > 10 µM | CC50 at 7 days [2]: > 68 µM

C=C(CP(=O)(OCC)OCC)C1CCC2(C(=O)O)CCC3(C)C(CCC4C5(C)CCC(OC(=O)CC(C)(C)C(=O)O)C(C)(C)C5CCC43C)C12 (stereo not shown) [Compound 14a]
CC50 at 7 days [2]: > 68 µM

C=C(CP(=O)(OCC)OCC)C1CCC2(C(=O)O)CCC3(C)C(CCC4C5(C)CCC(OC(=O)CC(C)(C)CC(=O)O)C(C)(C)C5CCC43C)C12 (stereo not shown) [Compound 14b]
TI (selectivity index) (HIV-1 [1]): >75 | IC50 (HIV-1 [1]; [4]): 0.9 ± 0.12 µM | CC50 at 7 days [2]: > 68 µM

C=C(CP(=O)(OCC)OCC)C1CCC2(C(=O)O)CCC3(C)C(CCC4C5(C)CCC(OC(=O)CCC(C)(C)C(=O)O)C(C)(C)C5CCC43C)C12 (stereo not shown) [Compound 14c]
TI (selectivity index) (HIV-1 [1]): >68 | IC50 (HIV-1 [1]; [4]): 1 ± 0.17 µM | CC50 at 7 days [2]: > 68 µM

C=C(C)[C@@H]1CC[C@]2(CO)CC[C@]3(C)[C@H](CC[C@@H]4[C@@]5(C)CC[C@H](O)C(C)(C)[C@@H]5CC[C@]43C)[C@@H]12 [betulin, lup-20(29)-ene-3β,28-diol, reference compound]
IC50 (HIV-1 [1]; [4]): > 10 µM | CC50 at 7 days [2]: 46 ± 3.01 µM

C=C(C)[C@@H]1CC[C@]2(C(=O)O)CC[C@]3(C)[C@H](CC[C@@H]4[C@@]5(C)CC[C@H](O)C(C)(C)[C@@H]5CC[C@]43C)[C@@H]12 [betulinic acid, 3β-hydroxy-20(29)-lupaene-28-oic acid, reference compound]
EC50 (HIV-1 [3]): 1.6 µM | IC50 (HIV-1 [1]; [4]): > 10 µM | CC50 at 7 days [2]: 5 ± 2.44 µM

C=C(C)[C@@H]1CC[C@]2(C(=O)O)CC[C@]3(C)[C@H](CC[C@@H]4[C@@]5(C)CC[C@H](OC(=O)CC(C)(C)C(=O)O)C(C)(C)[C@@H]5CC[C@]43C)[C@@H]12 [bevirimat, 3-O-(3′,3′-dimethylsuccinyl) betulinic acid, reference compound]
EC50 (HIV; literature reports): 0.00035 µM | IC50 (HIV-1 [1]; Human immunodeficiency virus 1, CEM-T4, 168 h): 0.03 ± 0.009 µM | CC50 at 7 days ([2]; CEM-T4 cells): 29 ± 2.43 µM
